Measurements taken from paper PMC10353390, “Biological and Structural Analyses of New Potent Allosteric Inhibitors of HIV-1 Integrase” (Antimicrobial Agents and Chemotherapy, 2023).
Read-outs that look alike come from different tables or passages of the source.

How the values were obtained:
[1] = system: VSV-G-pseudotyped NL4-3Δenv-luc; test: microbe, parasite or virus in culture; type: cell-based, HIV-1
[2] = system: NL4-3 HIV-1 strain; test: Multiple-round infection assay in MT4 cells, NL4-3; type: cell-based; conditions: MT4 cells
[3] = system: lab-adapted and clinical HIV-1 isolates; test: Infection assays in primary T CD4+ lymphocytes; type: cell-based; conditions: Human immunodeficiency virus 1, Lymphocyte
[4] = system: primary HIV-1 isolates with polymorphisms at IN positions 124 and 125; test: Multiple-round infection of MT4 cells with primary HIV-1 isolates polymorphic at IN positions 124 and 125; type: cell-based; conditions: primary isolate
Description: Next, we evaluated the potency of the BDM-2 series of INLAIs against several primary HIV-1 isolates with polymorphisms at IN positions 124 and 125.
(§1) MT4 cells growing exponentially at the density of 10^6/mL were infected with HIV-1 strain NL4-3 at a multiplicity of infection (MOI) of 0.001 for 2 h in the presence of different concentrations of compounds, and the CellTiter-Glo luminescent reagent (Promega) was used to quantify cell viability as described previously ([12]).

[5] = system: HXB2 HIV-1 strain; test: Multiple-round infection assay in MT4 cells, HXB2; type: cell-based; conditions: Human immunodeficiency virus 1, HXB2; multiple-round infection, MT4 cells; mean ± SD, n > 5; read-out: EC50 HXB2
Description: Antiretroviral activity of BDM-2 and its analogs was first evaluated in lymphoblastoid cell line MT4 and in primary human T lymphocytes using NL4-3 and HXB2 laboratory HIV-1 isolates.
as §1

[6] = Cytotoxicity assay in MT4 cells; type: cell-based; conditions: human, MT4 cells (proliferating human T-cell line), CellTiter-Glo
Excerpt: Growth inhibition was monitored in a proliferating human T-cell line (MT4) with different concentrations of compounds, using the CellTiter-Glo luminescent reagent (Promega), as previously described ([12]).

[7] = system: HIV-1 strains resistant to INSTIs, NRTIs, NNRTIs or PIs; type: cell-based
Description: To this end, we used both recombinant viruses constructed by introducing described drug resistance mutations into NL4-3 HIV-1 clone as well as drug-resistant clinical HIV-1 isolates.
as §1

[8] = system: recombinant NL4-3 viruses with polymorphisms at IN positions 124 and 125; test: Multiple-round infection of MT4 cells with recombinant NL4-3 viruses polymorphic at IN positions 124 and 125; type: cell-based, HIV-1
Excerpt: Located on the HIV-1 IN CCD dimerization interface, the principal INLAI binding pocket overlaps with a hot spot of amino acid sequence polymorphism involving IN residues 124 and 125 ([16]). To test if the new INLAIs maintained antiviral activity against major polymorphisms, we introduced all major combinations of residues found in circulating HIV-1 strains at positions 124 and 125 into NL4-3 HIV-1 molecular clone. In total, we evaluated 15 such combinations that collectively covered 98% of all HIV-1 clade polymorphisms involving these positions ([48]). To gauge effects on the antiviral activity, we calculated the EC50 fold change (FC) relative to wild type NL4-3 HIV-1 strain that features Thr124 and Thr125 (TT; specific polymorphisms are referred to by a single letter amino acid code).
as §1

[9] = INSTI-resistant, NL4-3 background
[10] = INSTI-resistant, primary patient-derived strain

C[C@@H]1CCO[C@H]2Cn3cc(C(=O)NCc4ccc(F)cc4F)c(=O)c(O)c3C(=O)N12 [DTG, dolutegravir, reference compound]
EC50 ratio (single/multiple-round infection) [1]: 0.16 | EC50 ([1]; Human immunodeficiency virus 1, NL43, MT4, read-out: EC50 in single-round infection): 0.44 ± 0.13 nM | EC90 ([2]; Human immunodeficiency virus 1, NL43, multiple-round infection, from dose response curves, read-out: EC90 NL4-3): 6.3 ± 4.4 nM | EC50 ([2]; Human immunodeficiency virus 1, NL43, multiple-round infection, mean ± SD, n > 5, read-out: EC50 NL4-3): 2.7 ± 1.3 nM | Selectivity index CC50/EC50 NL4-3 [2]: 18,888 | EC50 ([3]; read-out: EC50 33913N (B)): 0.35 ± 0.42 nM | EC50 ([3]; read-out: EC50 HXB2 (B)): 0.17 ± 0.01 nM | EC50 ([3]; read-out: EC50 KER2008 (A)): 0.4 ± 0.21 nM | EC50 ([3]; read-out: EC50 NL4-3 (B)): 0.53 ± 0.16 nM | EC50 ([3]; read-out: EC50 NP1525 (CRF01_AE)): 0.21 ± 0.09 nM | EC50 ([3]; read-out: EC50 NP1538 (B)): 0.29 ± 0.13 nM | Fold change in EC50 relative to parental NL4-3, CAM2BBY (CRF02) ([4]; IN 124/125 AA): 1 | Fold change in EC50 relative to parental NL4-3, E0836M4 (D) ([4]; IN 124/125 AA): 2 | Fold change in EC50 relative to parental NL4-3, KER2008 (A) ([4]; IN 124/125 AA): 1 | Fold change in EC50 relative to parental NL4-3, NP1525 (CRF01) ([4]; IN 124/125 AA): 2 | Fold change in EC50 relative to parental NL4-3, NP1695 (CRF02) ([4]; IN 124/125 AA): 2 | Fold change in EC50 relative to parental NL4-3, TZA125 (C) ([4]; IN 124/125 AA): 2 | Fold change in EC50 relative to parental NL4-3, KSM4030 (A) ([4]; IN 124/125 GA): 2 | Fold change in EC50 relative to parental NL4-3, vGA (C) ([4]; IN 124/125 GA): 2 | Fold change in EC50 relative to parental NL4-3, 99ET14 (C) ([4]; IN 124/125 NA): 2 | Fold change in EC50 relative to parental NL4-3, NP1538 (B) ([4]; IN 124/125 NA): 1 | Fold change in EC50 relative to parental NL4-3, vNA_1 (B) ([4]; IN 124/125 NA): 2 | Fold change in EC50 relative to parental NL4-3, vNA_2 (CRF02) ([4]; IN 124/125 NA): 2 | Fold change in EC50 relative to parental NL4-3, vNV (B) ([4]; IN 124/125 NV): 1 | Fold change in EC50 relative to parental NL4-3, vSA_1 (B) ([4]; IN 124/125 SA): 1 | Fold change in EC50 relative to parental NL4-3, vSA_2 (CRF02) ([4]; IN 124/125 SA): 2 | Fold change in EC50 relative to parental NL4-3, vTA_1 (B) ([4]; IN 124/125 TA): 1 | Fold change in EC50 relative to parental NL4-3, vTA_2 (CRF02) ([4]; IN 124/125 TA): 1 | EC50 [5]: 1.9 ± 1 nM | CC50 [6]: 51000 ± 28000 nM | Fold change in EC50 relative to NL4-3, G140S [7, 9]: 0.6 | Fold change in EC50 relative to NL4-3, G140S/Q148H [7, 9]: 2 | Fold change in EC50 relative to NL4-3, N155H [7, 9]: 0.3 | Fold change in EC50 relative to NL4-3, Q148H [7, 9]: 0.3 | Fold change in EC50 relative to NL4-3, Y143R [7, 9]: 0.4 | Fold change in EC50 relative to NL4-3, E92Q/N155H (pat.) [7, 10]: 1 | Fold change in EC50 relative to NL4-3, G140S/Q148H (pat.) [7, 10]: 3 | Fold change in EC50 relative to NL4-3, T97A/N155H (pat.) [7, 10]: 3 | Fold change in EC50 relative to NL4-3, NLAY351717 ([7]; NRTI-resistant clone): 0.4 | Fold change in EC50 relative to NL4-3, NLAY351753 ([7]; NRTI/NNRTI-resistant clone): 1 | Fold change in EC50 relative to NL4-3, K103N/Y181C ([7]; NRTI/NNRTIs group, NL4-3 background): 0.3 | Fold change in EC50 relative to NL4-3, ARP-4595 ([7]; PI-resistant virus): 1 | Fold change in EC50 relative to NL4-3, ARP-4596 ([7]; PI-resistant virus): 0.5 | Fold change in EC50 relative to NL4-3, ARP-11801 ([7]; PI-resistant virus): 1 | Fold change in EC50 relative to NL4-3, ARP-11803 ([7]; PI-resistant virus): 1 | Fold change in EC50 relative to NL4-3, ARP-11807 ([7]; PI-resistant virus): 2 | Fold change in EC50 relative to NL4-3, ARP-11808 ([7]; PI-resistant virus): 1 | Fold change in EC50 relative to parental NL4-3, AA ([8]; recombinant NL4-3, IN 124/125 AA): 1 | Fold change in EC50 relative to parental NL4-3, AM ([8]; recombinant NL4-3, IN 124/125 AM): 2 | Fold change in EC50 relative to parental NL4-3, AT ([8]; recombinant NL4-3, IN 124/125 AT): 1 | Fold change in EC50 relative to parental NL4-3, AV ([8]; recombinant NL4-3, IN 124/125 AV): 2 | Fold change in EC50 relative to parental NL4-3, GA ([8]; recombinant NL4-3, IN 124/125 GA): 2 | Fold change in EC50 relative to parental NL4-3, GT ([8]; recombinant NL4-3, IN 124/125 GT): 2 | Fold change in EC50 relative to parental NL4-3, NA ([8]; recombinant NL4-3, IN 124/125 NA): 1 | Fold change in EC50 relative to parental NL4-3, NT ([8]; recombinant NL4-3, IN 124/125 NT): 1 | Fold change in EC50 relative to parental NL4-3, NV ([8]; recombinant NL4-3, IN 124/125 NV): 2 | Fold change in EC50 relative to parental NL4-3, SA ([8]; recombinant NL4-3, IN 124/125 SA): 1 | Fold change in EC50 relative to parental NL4-3, ST ([8]; recombinant NL4-3, IN 124/125 ST): 2 | Fold change in EC50 relative to parental NL4-3, TA ([8]; recombinant NL4-3, IN 124/125 TA): 1 | Fold change in EC50 relative to parental NL4-3, TM ([8]; recombinant NL4-3, IN 124/125 TM): 2 | Fold change in EC50 relative to parental NL4-3, TV ([8]; recombinant NL4-3, IN 124/125 TV): 2
